Data from a melting point compilation (Tetko et al.; mined from patent text by program, amines drawn as free bases though some values may be those of a salt).

SMILES | melting point [°C]
CC12CCC3C(CCC4CC(O)CCC43C)C1CCC2S (stereo not given) | 169 to 170
O=S(c1ccc(/C=C/c2nc(COc3ccc(CCCCn4ccnn4)cc3)co2)cc1)C(F)(F)F (stereo not given) | 122 to 123
CCOC(=O)c1nc2cc(Br)c(Cl)cc2[nH]c1=O | 203 to 205
CNC(=S)C1=CC(CF)(CF)Oc2cc(Cl)c(Cl)cc21 | 142 to 143
CCCCCCCCCCCCCCCCCCC(CO)CO | 88
N#Cc1ccc(COc2ccc3ccccc3c2C=O)cc1 | 163 to 164
CC=CC=NNC(=O)c1cccnc1 | 144 to 145
Cc1nccn1CC1CCc2c(c3ccccc3n2C)C1NO (stereo not given) | 140 to 144
N#CC(C(=O)c1cc(F)c(Cl)cc1Cl)=C(N)C1CC1 | 95
O=Cc1cccc2nnc(-c3ccccc3)cc12 | 156 to 157
CCOC(=O)C1=C(C)NC(SCc2ccc(OC)cc2)=NC1c1cccc(C)c1 (stereo not given) | 65 to 67
CC(=O)NNc1ccnc2c(NC(=O)c3c(Cl)cccc3Cl)cccc12 | 252
CC(=O)c1cc(Oc2ccccc2)c(NS(C)(=O)=O)cc1O | 151 to 153
O=S(Cc1cccc(O)c1)c1nc2cnccc2[nH]1 (stereo not given) | 224 to 227
CC(C)(C)OC(=O)c1ccc(C(=O)N(Cc2ccccc2)S(=O)(=O)c2ccc(Br)cc2)cc1 | 120 to 122
Cc1ccc2nc(SCCN(C)C)[nH]c2c1 | 103
CCCCNc1nc(C)no1 | 62 to 65
CCOC(=O)C(Cc1ccc(OCCc2nc(-c3ccccc3)oc2C)cc1)C(=O)OCC | 69.8 to 70.5
CCOC(=O)C(O)=Cc1ccc(Oc2ccccc2)nn1 | 127 to 128
CNC(=CC#N)c1ccc2ccccc2c1 | 138
COc1cc(OC)cc(Oc2ncccc2OCCCc2ccncc2O)c1 | 172 to 178
COC(=O)NCc1nc(C(C)C)c(Sc2cc(Cl)cc(Cl)c2)n1C | 138 to 139

SMILES | melting point [°C]
Cc1cc(N)nc(CCc2nc3cc(-c4ccc(S(=O)(=O)N(C)C)cc4)cnc3[nH]2)c1 | 157
CCOC(=O)c1c[nH]c2ccc(Cc3ccccc3)cc12 | 119 to 121
O=C(N[C@H]1C=C[C@@H](C(=O)O)C1)c1ccccc1 | 150 to 151
CCCc1ccc(NCc2ccc(N(C)C)cc2)cc1 | 74 to 76
Nc1cccc2c1C(Cc1ccnc(F)c1)(Cc1ccnc(F)c1)c1ccccc1-2 | 182 to 184
CCNc1nc2cccc(C(=O)O)c2n1Cc1ccc(-c2ccccc2-c2nnn[nH]2)cc1 | 240 to 242
CC(C)NCC(O)c1ccc(N)c(C(F)(F)F)c1 (stereo not given) | 136 to 138
COc1cc2nc(NC3CC3)nc(-c3cccc([N+](=O)[O-])c3)c2cc1OC | 140 to 142
CCCCn1cc(C(=O)C(=O)O)c2cc(-c3cccc(Cl)c3)ccc21 | 108 to 109
CC(C)(C)Nc1ccncc1NC(=S)NC1CCCCC1 | 216 to 218
CCc1nn2c(O)cc(O)nc2c1S(=O)(=O)c1ccccc1 | > 230
Cc1ccccc1Oc1cccc(CCC(=O)O)c1O | 106 to 107
CC(C)CCS(=O)(=O)NC(=O)/C=C/c1cc(OC2CCOCC2)nn1Cc1ccc(Cl)cc1Cl | 143 to 144
CCn1cc(C(=O)O)c(=O)cc1-c1cccnc1 | 209 to 210
COC1(c2ccccc2)CCc2c(C(=O)N3CCC3)cc3c(nc(C)n3C)c2O1 (stereo not given) | 147 to 150
COc1ccc(Cl)cc1C(=O)NCCc1ccc(Sc2ccccc2)c(S(N)(=O)=O)c1 | 178
CCCc1nc2c(N)nc3ccc(C)cc3c2s1 | 147 to 149
Oc1ccc2cc(-c3csc(-c4ccccc4)n3)ccc2c1 | 194 to 197
COc1c(-c2cc3c(s2)CCC(CO)C3)ccc2c(=O)c(C(=O)O)cn(C3CC3)c12 (stereo not given) | 218 to 219
Cc1ccc2c(c1)N=C(NCc1cccnc1)c1ccccc1N2 | 186 to 187
O=C1c2ccccc2C(=O)N1OCCc1cn(C(c2ccccc2)(c2ccccc2)c2ccccc2)cn1 | 177
O=C(O)c1cn(-c2cc([N+](=O)[O-])c(F)c(F)c2F)c2nc(Cl)c(F)cc2c1=O | 216 to 221

SMILES | melting point [°C]
COC(=O)c1sc(OC)c(C)c1O | 63 to 65
COC(=O)Nc1cccc(C)c1CNc1cc(C(=O)N(C)C)cc2c1nc(C)n2C | 193 to 195
O=C1c2ccccc2C(=O)N1CC(Cl)(CCl)c1ccccc1 (stereo not given) | 114 to 115
CC(C)Oc1ccc(C(=O)[NH+]([O-])c2c(Cl)cncc2Cl)c2c1oc1ccccc12 (stereo not given) | 247 to 248
CCCCCCNC(=O)[C@@H](NC(=O)[C@H](CC(C)C)NC(=O)OC(C)(C)C)C(C)C | 115 to 116
CC1=CC(=O)C=C2CCC3C4CCC(=O)C4(C)CCC3C12C (stereo not given) | 165 to 167
CC1OC(=O)N(c2nc(-c3ccc(C#N)cc3)cs2)C1(C)C (stereo not given) | 166 to 167
O=C(O)Cc1cnc(Cc2ccc(NC(=O)c3ccc(Cl)c(Cl)c3)cc2)n2ccnc12 | 185 to 188
Nc1nc2c(s1)CCN(CC=Cc1ccc(OCc3ccccc3)cc1)CC2 | 135 to 140
O=C(Nc1ccccc1)Nc1cccc(-c2ccc(CC3SC(=O)NC3=O)cc2)c1 (stereo not given) | 185
CC(=O)c1ccccc1CN1C(=O)C(NC(=O)Nc2cccc(-c3nnn[nH]3)c2)N=C(C2CCCCC2)c2cccc(C)c21 (stereo not given) | 199 to 208
CSc1cc2c([nH]1)CC(C)(C)CC2=O | 195 to 196
COc1cccc(CNC(=O)c2nc3ccccc3c(=O)[nH]2)c1 | 186 to 189
Cc1onc(-c2ccc(Br)o2)c1-c1ccccc1 | 93 to 96
CCn1ncc2c3[nH]cnc(=O)c3cnc21 | 320 to 322
COc1ccc(CC=[N+]([O-])C(C)(C)C)cc1 | 90 to 91
OC(CN1CCC(C(O)c2ccccc2)CC1)c1ccc(F)cc1 (stereo not given) | 114 to 116
CC(=O)OCC1OC(n2cnc3c(Cl)nc(N)nc32)C(OC(C)=O)C1OC(C)=O (stereo not given) | 58 to 60
O=C(O)c1csc(-c2ccc3cc(O)c(C45CC6CC(CC(C6)C4)C5)cc3c2)c1 | 312 to 314
Cc1csc(CC(=O)O)c1 | 49

Results, then the molecule that gave them:

melting point [°C] | SMILES
247 to 249 | Nc1c(-c2ccc(-c3ccccc3F)cc2)nc2ccc(Cl)cc2c1C(=O)O
117 to 118 | ClCc1ccc(OCc2csc(-c3ccccc3)n2)nc1
79 to 80 | CC=C(Cl)C(Cl)CC(O)(Cn1cncn1)C1(Cl)CC1 (stereo not given)
229 to 231 | COc1ccc(NC(=O)CN2C(=O)c3ccccc3C2=O)c(OC)c1COc1cccc2ccc(C)nc12
166 to 168 | COc1cc(-c2ccc(S(C)(=O)=O)cc2)c(-c2ccc(F)cc2)c(C(F)(F)F)n1
154 to 155 | COc1cc(COc2cc(/C=C/c3cscn3)n(-c3ccccc3)n2)ccc1OCc1nc(-c2ccco2)oc1C
197 to 200 | COc1cc(-c2nn(Cc3ccccc3)c(=O)c3ccccc23)ccc1O
131 to 132 | CCOC(=O)C=Cc1ccc(CCNS(=O)(=O)C=Cc2ccc(Cl)cc2)cc1
116 to 118 | CC(CC(=O)O)CC(=O)Nc1ccc(Cl)cc1 (stereo not given)
185 to 186 | Cc1ccc2c(c1)oc1c(C(N)=O)nn(-c3ccc(Cl)cc3Cl)c12
151 to 153 | Clc1ccc(C(OCCN2CCOCC2)(c2ccc(Cl)cc2)c2ccc(Cl)cc2)cc1
297 to 299 | Cc1c2c(cc3c(=O)c4ccccc4oc13)CC(C(=O)O)O2 (stereo not given)
88 to 91 | CC(C)(C(O)c1ccc2c(c1)OCO2)[N+](=O)[O-] (stereo not given)
192 to 196 | Cn1c(C(F)(F)F)cc(=O)n(-c2ccc3snc(C(C)(C)C(N)=O)c3c2)c1=O
157 | COc1ccccc1C(CNc1c(C#N)cnn2cccc12)N1CCOCC1 (stereo not given)
54 to 55 | CCOC(=O)c1c(-c2ccccc2)nc(Cl)n1C
45 to 46 | S=C(Nc1ccccc1)c1ccccn1
> 300 | COc1c(-c2ccc3cc(NS(C)(=O)=O)ccc3c2)cc(N2CCCNC2=O)cc1C(C)(C)C

melting point [°C] | SMILES
187 to 188 | CC1(C)C(=O)N(c2ccc([N+](=O)[O-])c(C(F)(F)F)c2)C(=O)N1CCCCCCN1C(=O)N(c2ccc([N+](=O)[O-])c(C(F)(F)F)c2)C(=O)C1(C)C
214 to 215 | COc1c(OC)c(O)c2c(=O)c3ccc(O)c(OC)c3[nH]c2c1OC
111 to 113 | CC1(C(=O)Nc2ccc(OCC3CC3)c(Cl)c2)CC1
141 to 142 | CC(C)c1c(C=CC2CC(O)CC(O)O2)n(C2CCCCC2)c(=O)c2ccccc12 (mixture of isomers)
124 | NC(=O)c1ccc(F)c2c1OCC(N(CCCc1c[nH]c3c(F)cc(F)cc13)CC1CC1)C2 (stereo not given)
243 to 244 | COc1cccc(-n2c(-c3sc(Nc4ccc(Cl)cc4)nc3C)nc3ccccc3c2=O)c1
121 to 122 | Cc1cccc(C)c1N(CC(C)O)C(=O)c1ccccc1 (stereo not given)
192 to 195 | Nc1nc2c(s1)CCN(C/C=C\c1cccc3c1CC(=O)N3)CC2
> 120 | CCCCc1nc(CO)c(C(=O)N2CCC[C@H]2C(=O)OC)n1Cc1ccc(-c2ccccc2C(=O)O)cc1
77 to 78.5 | CCc1nc(-c2ccc(OCCCn3ccnc3C)cc2)no1
142 to 143 | Cn1c(=Nc2ccc(Cl)cc2)sc2ncccc2c1=O
150 to 184 | CCNC(=O)c1ccccc1Nc1nc(Nc2ccc3c(c2)CCN(CCOC)CC3)ncc1Cl
100 to 102 | CNC(=S)NN=C(CCCCl)c1cccnc1
183 to 186 | CC(C)CN1C(=O)[C@H](CC(=O)O)O[C@@H](c2ccccc2Cl)c2cc(Cl)ccc21
174 to 175 | O=C1c2cc(OCc3ccc4ccccc4n3)ccc2OCC1Oc1cccnc1 (stereo not given)
220 to 223 | O=C(Nc1ccccc1C(c1ccc(O)cc1)c1ccc(O)cc1)C1CCCCC1
183 to 186 | CCCCCCCCCCCCCCCCOc1ccc(OCC(=O)Nc2cccc(CBr)c2)cc1
162 to 163 | O=C(O)c1ccc(Oc2nccs2)cc1
